Source: patent US20190231771A1, “METHODS FOR TREATMENT AND PREVENTION OF OPIOID INDUCED CONSTIPATION USING ORAL COMPOSITIONS OF METHYLNALTREXONE” (Salix Pharmaceuticals, Ltd., priority 2011, published 2019)
“And” between values parts separate entries of the source, which are not always exact repeats. Identical values can stand only once.

Legend:
[1] = Study C: single and multiple dose pharmacokinetics of MNTX and metabolites, MNTX 450 mg PO x 7 days; type: in vivo, human; settings: for bioavailability: oral, MNTX tablets 450 mg, cross-study AUCinf comparison; for bioavailability / half-life / AUC(0-inf) / AUC(0-t) / Cmax: 450 mg; for half-life / AUC(0-inf) / AUC(0-t) / Cmax: po; for AUC(0-t): read-out: AUC0-24; for Cmax: read-out: Cmax
Procedure: Presented herein is a clinical pharmacokinetics study, Study C, as well as Studies A and B. Study A investigated the single and multiple dose pharmacokinetics of methylnaltrexone (MNTX) and its metabolites (M2: methylnaltrexone sulfate; M4: 6α-methylnaltrexol; and M5: 6β-methylnaltrexol) following the subcutaneous administration of 12 mg methylnaltrexone. In Study B, the single and multiple dose pharmacokinetics of methylnaltrexone (MNTX) and its metabolites (M2, M4, and M5) were examined following a 20-minute short intravenous infusion of 24 mg of methylnaltrexone (MNTX).
In addition, the urinary elimination of MNTX was characterized.
Pharmacokinetic parameters included Cmax, AUCt, AUCinf, tmax, t1/2, % Re24, accumulation factor (R) as defined below and metabolite/parent drug ratio.
R=Accumulation Factor(based on AUC0-24(ng·h/mL):Day 7 AUC AUC0-24/Day 1 AUC0-24
Metabolite-Parent Drug ratio(based on ng·h/mL)(%)=100*(Metabolite AUC24/MNTX AUC24)
Note: AUCinf was used in place of AUC AUC0-24 for R and Metabolite-Parent Drug ratio computations following IV administration.

[2] = Comparative bioavailability: single oral 150, 300, 450 mg MNTX tablets vs 12 mg SC injection, crossover; type: in vivo, human; settings: for t1/2 / half-life: harmonic mean; for bioavailability: arithmetic mean AUC0-∞, read-out: dose-normalized bioavailability of oral MNTX relative to SC MNTX
Description: The oral dosage levels and formulation of MNTX evaluated here were the same as those in a phase 3 study of oral MNTX tablets, with the exception of a nonfunctional coating on the MNTX tablets. […] The pharmacokinetics of the uncoated tablet used in the phase 3 study and the coated tablets used in the current study were compared in a separate study. […] A single-dose pharmacokinetic profile of oral MNTX tablets was also planned for evaluation in this study.
Presented herein is a randomized, open-label, crossover study consisting of 6 dosing sequences, each with 2 dosing periods; the dosing periods were separated by 7 days. All subjects were housed in the clinical research unit from Day −1 through Day 14 and were discharged on Day 15, which concluded their participation in the study. Prior to receiving study drug on Days 1 and 8, the subjects underwent an overnight fast of at least 10 hours, beginning on Days 0 and 7, respectively. In both dosing periods, the subjects received a single oral dose of MNTX tablets (150, 300, or 450 mg) or a single SC injection of MNTX (12 mg). The dosing was conducted in a crossover fashion (e.g., a tablet was administered at one visit and a SC injection was administered at the alternate visit). The strength of oral methylnaltrexone dose (150 mg, 300 mg, or 450 mg) and the dosing sequence (Day 1: oral tablet; Day 8: SC injection vs the alternate dosing order) for each subject were determined by random assignment. Each oral dose was administered with 240 mL of room temperature drinking water. The subjects were instructed to drink all of the water and were told to swallow the tablets whole (e.g., not to chew, divide, or crush them). Blood samples were collected for pharmacokinetic analyses prior to dosing (approximately 1 hour prior) on Day 1, and at 0.25, 0.5, 1, 2, 4, 6, 8, 10, 12, 16, 24, 36, 48, 72, 96, 120, 144, and 168 hours after dosing on Days 1 and 8.
Each tablet contained 150 mg of the active pharmaceutical ingredient, MNTX.
Each injection vial contained 12 mg of the active pharmaceutical ingredient, MNTX, per 0.6 mL of solution (i.e., 20 mg/mL solution).
In this study, all 48 enrolled subjects received study drug in each of the 2 study periods and were included in the safety and pharmacokinetic analyses.
This was a phase 1, randomized, open-label, crossover study consisting of 6 dosing sequences, each with 2 dosing periods. In both dosing periods, the subjects received a single oral dose of MNTX tablets (150, 300, or 450 mg) or a single SC injection of MNTX (12 mg). The dosing was conducted in a crossover fashion (i.e., a tablet was administered at one visit and a SC injection was administered at the alternate visit).
Forty-eight subjects were enrolled and 47 subjects (97.9%) completed the study; one subject discontinued due to personal reasons after receiving study drug in both study periods. The subjects received study drug in accordance with the randomization schedule; specifically, 16 subjects each received a single oral dose of 150, 300, and 450 mg MNTX tablets and all 48 subjects received a single 12 mg SC injection of MNTX.

[3] = human, plasma, 450 mg Tablets oral, Day 1, mean
[4] = human, plasma, 450 mg Tablets oral, Day 7, mean
[5] = MNTX 12 mg SC Injection, single dose, mean
[6] = MNTX 150 mg Tablet vs 12 mg SC Injection
[7] = MNTX 150 mg Tablet, single oral dose, mean
[8] = MNTX 300 mg Tablet, single oral dose, mean
[9] = MNTX 450 mg Tablet, single oral dose, mean

## C[N@+]1(CC2CC2)CC[C@]23c4c5ccc(O)c4O[C@H]2C(=O)CC[C@@]3(O)[C@H]1C5.[Br-] [MNTX, (R)—N-(cyclopropylmethyl) noroxymorphone methobromide]
[1]; 450 mg Tablets oral, AUC0-24 on Day 7/AUC0-24 on Day 1
  R (PO), accumulation factor: 1.20
[1]; human, plasma, multiple dose, read-out: bioavailability relative to IV multiple dose administration
  bioavailability: 5.8%
[1]; human, plasma, multiple dose, read-out: bioavailability relative to SC multiple dose administration
  bioavailability: 4.8%
[1]; human, plasma, single dose, read-out: absolute bioavailability (relative to IV infusion)
  bioavailability: 4.24%
[1]; human, plasma, single dose, read-out: bioavailability relative to SC injection
  bioavailability: 3.7%
[1]; human, plasma, 450 mg Tablets oral, Day 1, harmonic mean
  half-life: 8.8 h
[1]; [3]
  AUC(0-inf): 315 ng·h/mL
  AUC(0-t): 280 ng·h/mL
  Cmax: 47 ng/mL
[1]; human, plasma, 450 mg Tablets oral, Day 7, harmonic mean
  half-life: 19.2 h
[1]; [4]
  AUC(0-inf): 404 ng·h/mL
  AUC(0-t): 309 ng·h/mL
  Cmax: 45.5 ng/mL
[1]; human, plasma, 450 mg Tablets oral, Day 1, median, read-out: Tmax
  Tmax: 2 h
[2]; MNTX 12 mg SC Injection, single dose
  t1/2: 9.16 h
[2]; [5]
  AUC0-∞: 269.09 ng·h/mL
  CL/F: 45698.7 mL/h and 45698.71 mL/h
  Cmax: 174.01 ng/mL
[2]; [6]
  AUC0-t GMR, tablet/injection × 100: 35.61%
  AUC0-∞ GMR, tablet/injection × 100: 36.41%
  Cmax GMR, tablet/injection × 100: 5.779%
[2]; MNTX 150 mg Tablet, single oral dose
  t1/2: 13.95 h
[2]; [7]
  AUC0-∞: 106.87 ng·h/mL
  CL/F: 1735472.22 mL/h
  Cmax: 13.22 ng/mL
[2]; MNTX 300 mg Tablet vs 12 mg SC Injection
  AUC0-t GMR, tablet/injection × 100: 74.73%
[2]; MNTX 300 mg Tablet, single oral dose
  t1/2: 14.16 h
[2]; [8]
  AUC0-∞: 231.24 ng·h/mL
  CL/F: 1564638.99 mL/h
  Cmax: 26.22 ng/mL
[2]; MNTX 450 mg Tablet vs 12 mg SC Injection
  AUC0-t GMR, tablet/injection × 100: 121.4%
[2]; MNTX 450 mg Tablet, single oral dose
  t1/2: 16.57 h
[2]; [9]
  AUC0-∞: 373.32 ng·h/mL
  CL/F: 1664001.3 mL/h and 1664001.28 mL/h
  Cmax: 39.89 ng/mL
[2]; human, plasma, oral, 150 mg, MNTX 150 mg Tablet, read-out: AUC0-t, Geometric LSM
  AUC(0-t): 94.2 ng·h/mL
[2]; human, plasma, oral, 150 mg, MNTX 150 mg Tablet, read-out: AUC0-∞, Geometric LSM
  AUC(0-inf): 96.7 ng·h/mL
[2]; human, plasma, oral, 150 mg, MNTX 150 mg Tablet, read-out: Cmax, Geometric LSM
  Cmax: 9.47 ng/mL
[2]; human, plasma, oral, 300 mg, MNTX 300 mg Tablet, read-out: AUC0-t, Geometric LSM
  AUC(0-t): 198 ng·h/mL
[2]; human, plasma, oral, 300 mg, MNTX 300 mg Tablet, read-out: AUC0-∞, Geometric LSM
  AUC(0-inf): 200 ng·h/mL
[2]; human, plasma, oral, 300 mg, MNTX 300 mg Tablet, read-out: Cmax, Geometric LSM
  Cmax: 21.8 ng/mL
[2]; human, plasma, oral, 450 mg, MNTX 450 mg Tablet, read-out: AUC0-t, Geometric LSM
  AUC(0-t): 321 ng·h/mL
[2]; human, plasma, oral, 450 mg, MNTX 450 mg Tablet, read-out: AUC0-∞, Geometric LSM
  AUC(0-inf): 327 ng·h/mL
[2]; human, plasma, oral, 450 mg, MNTX 450 mg Tablet, read-out: Cmax, Geometric LSM
  Cmax: 32.7 ng/mL
[2]; human, plasma, po, 150 mg, MNTX 150 mg Tablet, single oral dose
  half-life: 14 h
[2]; human, plasma, po, 150 mg, MNTX 150 mg Tablet, single oral dose, mean, read-out: AUC0-t
  AUC(0-t): 105 ng·h/mL
[2]; human, plasma, po, 150 mg, MNTX 150 mg Tablet, single oral dose, mean, read-out: AUC0-∞
  AUC(0-inf): 107 ng·h/mL
[2]; human, plasma, po, 150 mg, MNTX 150 mg Tablet, single oral dose, mean, read-out: Cmax
  Cmax: 13.2 ng/mL
[2]; human, plasma, po, 300 mg, MNTX 300 mg Tablet, single oral dose
  half-life: 14.2 h
[2]; human, plasma, po, 300 mg, MNTX 300 mg Tablet, single oral dose, mean, read-out: AUC0-t
  AUC(0-t): 229 ng·h/mL
[2]; human, plasma, po, 300 mg, MNTX 300 mg Tablet, single oral dose, mean, read-out: AUC0-∞
  AUC(0-inf): 231 ng·h/mL
[2]; human, plasma, po, 300 mg, MNTX 300 mg Tablet, single oral dose, mean, read-out: Cmax
  Cmax: 26.2 ng/mL
[2]; human, plasma, po, 450 mg, MNTX 450 mg Tablet, single oral dose
  half-life: 16.6 h
[2]; human, plasma, po, 450 mg, MNTX 450 mg Tablet, single oral dose, mean, read-out: AUC0-t
  AUC(0-t): 367 ng·h/mL
[2]; human, plasma, po, 450 mg, MNTX 450 mg Tablet, single oral dose, mean, read-out: AUC0-∞
  AUC(0-inf): 373 ng·h/mL
[2]; human, plasma, po, 450 mg, MNTX 450 mg Tablet, single oral dose, mean, read-out: Cmax
  Cmax: 39.9 ng/mL
[2]; human, plasma, sc, 12 mg, MNTX 12 mg SC Injection, single dose
  half-life: 9.2 h
[2]; human, plasma, sc, 12 mg, MNTX 12 mg SC Injection, single dose, mean, read-out: AUC0-t
  AUC(0-t): 268 ng·h/mL
[2]; human, plasma, sc, 12 mg, MNTX 12 mg SC Injection, single dose, mean, read-out: AUC0-∞
  AUC(0-inf): 269 ng·h/mL
[2]; human, plasma, sc, 12 mg, MNTX 12 mg SC Injection, single dose, mean, read-out: Cmax
  Cmax: 174 ng/mL
[2]; human, plasma, sc, 12 mg, MNTX 12 mg SC Injection, read-out: AUC0-t, Geometric LSM
  AUC(0-t): 264 ng·h/mL
[2]; human, plasma, sc, 12 mg, MNTX 12 mg SC Injection, read-out: AUC0-∞, Geometric LSM
  AUC(0-inf): 266 ng·h/mL
[2]; human, plasma, sc, 12 mg, MNTX 12 mg SC Injection, read-out: Cmax, Geometric LSM
  Cmax: 164 ng/mL
[2]; human, plasma, 12 mg SC injection, read-out: median Tmax (converted)
  Tmax: 0.25 h
[2]; human, plasma, MNTX 150 mg Tablet, single oral dose, median, read-out: Tmax
  Tmax: 2 h
[2]; human, plasma, MNTX 300 mg Tablet, single oral dose, median, read-out: Tmax
  Tmax: 1.5 h
[2]; human, plasma, MNTX 450 mg Tablet, single oral dose, median, read-out: Tmax
  Tmax: 2 h
[2]; human, plasma, oral 150 mg vs 12 mg SC
  bioavailability: 3.2%
[2]; human, plasma, oral 300 mg vs 12 mg SC
  bioavailability: 3.4%
[2]; human, plasma, oral 450 mg vs 12 mg SC
  bioavailability: 3.7%
[2]; human, plasma, oral MNTX tablets 150 mg to 450 mg, read-out: median Tmax, range over the oral doses
  Tmax: 1.5 to 2 h
[2]; oral 150, 300, 450 mg tablets and 12 mg SC injection, healthy volunteers
  tolerability: well tolerated
[2]; single doses
  Tmax shorter following SC MNTX 12 mg versus oral MNTX 150, 300, and 450 mg: 6- to 8 fold
  mean AUC0-∞ following SC MNTX 12 mg higher versus oral MNTX 300 mg: 16%
  mean AUC0-∞ following SC MNTX 12 mg lower versus oral MNTX 450 mg: 28%
  t1/2 shorter following SC MNTX 12 mg versus oral MNTX 150, 300, and 450 mg: 5 to 7 h
